# Data taken from patent publication US9708314B2, “Heterocyclic amide compound” (NISSAN CHEMICAL INDUSTRIES, LTD., priority 2013, dated 2017).
# Assays:
# Type in all cases: in vivo
# [1] = system: Echinochloa oryzacola Vasing.; assay: Test Example 1: herbicidal activity, application before weed generation in submerged conditions; settings: Application herbicide amount 320 g/ha; Seventeenth Table
# Description: (§1) [Test Example 1] Herbicidal Activity Test by Application Before Weed Generation in Submerged Conditions After alluvial soil was placed into 1/10000 are of Wagner pot, water was poured and mixed to form a submerged condition having a water depth of 4 cm. Seeds of Echinochloa oryzacola Vasing., Scirpus juncoides, and Monochoria vaginalis were sowed in a mixed manner in the above pot and thereafter 2.5 leaf stage Oryza sativa seedling was transplanted. On the day of sowing seeds, the emulsion agent containing the compound of the present invention prepared in accordance with Formulation Example 2 was diluted with water so as to be a predetermined herbicide amount and the diluted compound was applied to the surface of the water. The pot was placed in a greenhouse of 25° C. to 30° C. to grow plant. Three weeks after the herbicide application, effects on each plant were investigated in accordance with the following criteria. Criteria 5 Herbicidal ratio of 90% or more (almost completely withered) 4 Herbicidal ratio of 70% or more and less than 90% 3 Herbicidal ratio of 40% or more and less than 70% 2 Herbicidal ratio of 20% or more and less than 40% 1 Herbicidal ratio of 5% or more and less than 20% 0 Herbicidal ratio of 5% or less (almost no effect) A: Echinochloa oryzicola Vasing., B: Scirpus juncoides, C: Monochoria vaginalis, D: Leptochloa chinensis, E: Cyperus difformis, F: Digitaria ciliaris, G: Setaria viridis, H: Echinochloa crus-galli var. crus-galli, I: Avena fatua, J: Alopecurus myosuroides, K: Lolium multiflorum Lam., L: Apera spica-venti., M: Abutilon theophrasti, N: Amaranthus retroflexus, O: Chenopodium album, P: Stellaria media, Q: Galium spurium, R: Veronica persica, a: transplanted Oryza sativa, b: directly sowed Oryza sativa, c: Zea mays, d: Glycine max, e: Triticum aestivum, f: Beta vulgaris ssp. vulgaris, and g: Brassica campestris L. The application herbicide amount (g/ha) means an amount that a concentration is adjusted so that, when an application amount is converted into per hectare (1 ha), the herbicide is applied by the number of grams (g) of the described value.
# Scirpus juncoides = assay: as above; settings: Application herbicide amount 320 g/ha; Seventeenth Table
# Description: as §1
# Monochoria vaginalis = assay: as above; settings: Application herbicide amount 320 g/ha; Seventeenth Table
# Description: as §1
# [2] = system: Echinochloa crus-galli var. crus-galli; assay: Test Example 4: herbicidal effect by application to foliage (diluvial soil, plastic box); settings: for H (Echinochloa crus-galli var. crus-galli) herbicidal effect: application to foliage, application herbicide amount 320 g/ha; for H: Application herbicide amount 320 g/ha
# Summary of the method: (§2)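 Greenhouse plants (25° C. to 30° C., 14 d, diluvial soil) receive a foliar spray of water-diluted emulsifiable formulation at defined g/ha. Grading after 3 weeks uses a six-step herbicidal-ratio scale, with 4 covering 70% to <90% and 1 covering 5% to <20%.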
# Abutilon theophrasti = assay: as above; settings: for M (Abutilon theophrasti) herbicidal effect: application to foliage, application herbicide amount 320 g/ha; for M: Application herbicide amount 320 g/ha
# Summary of the method: as §2
# Apera spica-venti. = assay: as above; settings: for L (Apera spica-venti.) herbicidal effect: application to foliage, application herbicide amount 320 g/ha; for L: Application herbicide amount 320 g/ha
# Summary of the method: as §2
# Avena fatua = assay: as above; settings: for I (Avena fatua) herbicidal effect: application to foliage, application herbicide amount 320 g/ha; for I: Application herbicide amount 320 g/ha
# Summary of the method: as §2
# Alopecurus myosuroides = assay: as above; settings: for J (Alopecurus myosuroides) herbicidal effect: application to foliage, application herbicide amount 320 g/ha; for J: Application herbicide amount 320 g/ha
# Summary of the method: as §2
# Chenopodium album = assay: as above; settings: for O (Chenopodium album) herbicidal effect: application to foliage, application herbicide amount 320 g/ha; for O: Application herbicide amount 320 g/ha
# Summary of the method: as §2
# Lolium multiflorum Lam. = assay: as above; settings: for K (Lolium multiflorum Lam.) herbicidal effect: application to foliage, application herbicide amount 320 g/ha; for K: Application herbicide amount 320 g/ha
# Summary of the method: as §2
# Digitaria ciliaris = assay: as above; settings: for F (Digitaria ciliaris) herbicidal effect: application to foliage, application herbicide amount 320 g/ha; for F: Application herbicide amount 320 g/ha
# Summary of the method: as §2
# Galium spurium = assay: as above; settings: for Q (Galium spurium) herbicidal effect: application to foliage, application herbicide amount 320 g/ha; for Q: Application herbicide amount 320 g/ha
# Summary of the method: as §2
# Setaria viridis = assay: as above; settings: for G (Setaria viridis) herbicidal effect: application to foliage, application herbicide amount 320 g/ha; for G: Application herbicide amount 320 g/ha
# Summary of the method: as §2
# Veronica persica = assay: as above
# Summary of the method: as §2
SMILES,A: Echinochloa oryzicola Vasing. (herbicidal effect grade) [1],B: Scirpus juncoides (herbicidal effect grade) (Scirpus juncoides),C: Monochoria vaginalis (herbicidal effect grade) (Monochoria vaginalis),H [2],M (Abutilon theophrasti),L (Apera spica-venti.),I (Avena fatua),J (Alopecurus myosuroides),O (Chenopodium album),K (Lolium multiflorum Lam.),F (Digitaria ciliaris),Q (Galium spurium),G (Setaria viridis),also measured
Cc1nnc(NC(=O)c2ccc(C(F)(F)F)n3c(C)nnc23)o1 [1-002],2 (Herbicidal ratio of 20% or more and less than 40%),1 (Herbicidal ratio of 5% or more and less than 20%),0 (Herbicidal ratio of 5% or less (almost no effect)),–,–,–,–,–,–,–,–,–,–,H (Echinochloa crus-galli var. crus-galli) herbicidal effect [2]: 5 (Herbicidal ratio of 90% or more (almost completely withered)); M (Abutilon theophrasti) herbicidal effect (Abutilon theophrasti): 3 (Herbicidal ratio of 40% or more and less than 70%); L (Apera spica-venti.) herbicidal effect (Apera spica-venti.): 1 (Herbicidal ratio of 5% or more and less than 20%); I (Avena fatua) herbicidal effect (Avena fatua): 3 (Herbicidal ratio of 40% or more and less than 70%); J (Alopecurus myosuroides) herbicidal effect (Alopecurus myosuroides): 1 (Herbicidal ratio of 5% or more and less than 20%); O (Chenopodium album) herbicidal effect (Chenopodium album): 5 (Herbicidal ratio of 90% or more (almost completely withered)); K (Lolium multiflorum Lam.) herbicidal effect (Lolium multiflorum Lam.): 2 (Herbicidal ratio of 20% or more and less than 40%); F (Digitaria ciliaris) herbicidal effect (Digitaria ciliaris): 4 (Herbicidal ratio of 70% or more and less than 90%); Q (Galium spurium) herbicidal effect (Galium spurium): 4 (Herbicidal ratio of 70% or more and less than 90%); G (Setaria viridis) herbicidal effect (Setaria viridis): 2 (Herbicidal ratio of 20% or more and less than 40%)
Cc1nnc(NC(=O)c2ccc(C(F)(F)F)n3c(C4CC4)nnc23)o1 [1-010],5 (Herbicidal ratio of 90% or more (almost completely withered)),3 (Herbicidal ratio of 40% or more and less than 70%),–,–,–,–,–,–,–,–,–,–,–,"H (Echinochloa crus-galli var. crus-galli) herbicidal effect [2]: 4 (Herbicidal ratio of 70% or more and less than 90%); M (Abutilon theophrasti) herbicidal effect (Abutilon theophrasti): 5 (Herbicidal ratio of 90% or more (almost completely withered)); L (Apera spica-venti.) herbicidal effect (Apera spica-venti.): 2 (Herbicidal ratio of 20% or more and less than 40%); I (Avena fatua) herbicidal effect (Avena fatua): 3 (Herbicidal ratio of 40% or more and less than 70%); J (Alopecurus myosuroides) herbicidal effect (Alopecurus myosuroides): 2 (Herbicidal ratio of 20% or more and less than 40%); O (Chenopodium album) herbicidal effect (Chenopodium album): 5 (Herbicidal ratio of 90% or more (almost completely withered)); K (Lolium multiflorum Lam.) herbicidal effect (Lolium multiflorum Lam.): 1 (Herbicidal ratio of 5% or more and less than 20%); R (Veronica persica) herbicidal effect (Veronica persica; application to foliage, application herbicide amount 320 g/ha): 5 (Herbicidal ratio of 90% or more (almost completely withered)); F (Digitaria ciliaris) herbicidal effect (Digitaria ciliaris): 3 (Herbicidal ratio of 40% or more and less than 70%); Q (Galium spurium) herbicidal effect (Galium spurium): 1 (Herbicidal ratio of 5% or more and less than 20%); G (Setaria viridis) herbicidal effect (Setaria viridis): 3 (Herbicidal ratio of 40% or more and less than 70%)"
COc1ccc(Cc2nnc3c(C(=O)Nc4nnc(C)o4)ccc(C(F)(F)F)n23)cc1 [1-069],5 (Herbicidal ratio of 90% or more (almost completely withered)),4 (Herbicidal ratio of 70% or more and less than 90%),3 (Herbicidal ratio of 40% or more and less than 70%),5 (Herbicidal ratio of 90% or more (almost completely withered)),3 (Herbicidal ratio of 40% or more and less than 70%),4 (Herbicidal ratio of 70% or more and less than 90%),2 (Herbicidal ratio of 20% or more and less than 40%),2 (Herbicidal ratio of 20% or more and less than 40%),5 (Herbicidal ratio of 90% or more (almost completely withered)),2 (Herbicidal ratio of 20% or more and less than 40%),5 (Herbicidal ratio of 90% or more (almost completely withered)),3 (Herbicidal ratio of 40% or more and less than 70%),5 (Herbicidal ratio of 90% or more (almost completely withered)),–
COc1cc(OC)cc(-c2nnc3c(C(=O)Nc4nnc(C)o4)ccc(C(F)(F)F)n23)c1 [1-070],5 (Herbicidal ratio of 90% or more (almost completely withered)),5 (Herbicidal ratio of 90% or more (almost completely withered)),5 (Herbicidal ratio of 90% or more (almost completely withered)),5 (Herbicidal ratio of 90% or more (almost completely withered)),4 (Herbicidal ratio of 70% or more and less than 90%),0 (Herbicidal ratio of 5% or less (almost no effect)),1 (Herbicidal ratio of 5% or more and less than 20%),0 (Herbicidal ratio of 5% or less (almost no effect)),5 (Herbicidal ratio of 90% or more (almost completely withered)),0 (Herbicidal ratio of 5% or less (almost no effect)),4 (Herbicidal ratio of 70% or more and less than 90%),3 (Herbicidal ratio of 40% or more and less than 70%),4 (Herbicidal ratio of 70% or more and less than 90%),–
CSC(C)c1nnc2c(C(=O)Nc3nnc(C)o3)ccc(C(F)(F)F)n12 (centres unmarked) [1-078],4 (Herbicidal ratio of 70% or more and less than 90%),4 (Herbicidal ratio of 70% or more and less than 90%),3 (Herbicidal ratio of 40% or more and less than 70%),5 (Herbicidal ratio of 90% or more (almost completely withered)),5 (Herbicidal ratio of 90% or more (almost completely withered)),4 (Herbicidal ratio of 70% or more and less than 90%),4 (Herbicidal ratio of 70% or more and less than 90%),3 (Herbicidal ratio of 40% or more and less than 70%),5 (Herbicidal ratio of 90% or more (almost completely withered)),3 (Herbicidal ratio of 40% or more and less than 70%),5 (Herbicidal ratio of 90% or more (almost completely withered)),–,5 (Herbicidal ratio of 90% or more (almost completely withered)),–
Cc1nnc(NC(=O)c2ccc(C(F)(F)F)n3c(C(C)[S+](C)[O-])nnc23)o1 (centres unmarked) [1-079],4 (Herbicidal ratio of 70% or more and less than 90%),4 (Herbicidal ratio of 70% or more and less than 90%),3 (Herbicidal ratio of 40% or more and less than 70%),5 (Herbicidal ratio of 90% or more (almost completely withered)),5 (Herbicidal ratio of 90% or more (almost completely withered)),–,4 (Herbicidal ratio of 70% or more and less than 90%),2 (Herbicidal ratio of 20% or more and less than 40%),5 (Herbicidal ratio of 90% or more (almost completely withered)),3 (Herbicidal ratio of 40% or more and less than 70%),5 (Herbicidal ratio of 90% or more (almost completely withered)),4 (Herbicidal ratio of 70% or more and less than 90%),5 (Herbicidal ratio of 90% or more (almost completely withered)),–
CCCSc1nnc2c(C(=O)Nc3nnc(C)o3)ccc(C(F)(F)F)n12 [1-087],5 (Herbicidal ratio of 90% or more (almost completely withered)),–,3 (Herbicidal ratio of 40% or more and less than 70%),5 (Herbicidal ratio of 90% or more (almost completely withered)),5 (Herbicidal ratio of 90% or more (almost completely withered)),2 (Herbicidal ratio of 20% or more and less than 40%),3 (Herbicidal ratio of 40% or more and less than 70%),3 (Herbicidal ratio of 40% or more and less than 70%),5 (Herbicidal ratio of 90% or more (almost completely withered)),1 (Herbicidal ratio of 5% or more and less than 20%),5 (Herbicidal ratio of 90% or more (almost completely withered)),1 (Herbicidal ratio of 5% or more and less than 20%),5 (Herbicidal ratio of 90% or more (almost completely withered)),R (Veronica persica; Application herbicide amount 320 g/ha): 4 (Herbicidal ratio of 70% or more and less than 90%)
